Assays:
Assay type in all cases: cell-based
Proteus mirabilis = assay: MIC against Gram-negative bacteria: Proteus mirabilis; conditions: 5×10^5 CFU/mL
In short: (§1)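 LB broth cultures at McFarland 0.5, spun down, resuspended, diluted to 5×10^5 CFU/mL final. Two-fold serial dilutions of purified human EGF domain proteins, triplicate. 37° C, 175 rpm shaking. Endpoint: no visible growth.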

Proteus vulgaris = assay: MIC against Gram-negative bacteria: Proteus vulgaris; conditions: 5×10^5 CFU/mL
In short: as §1

Klebsiella pneumonia = assay: MIC against Gram-negative bacteria: Klebsiella pneumonia; conditions: 5×10^5 CFU/mL
In short: as §1

Moraxella catarrhalis = assay: MIC against Gram-negative bacteria: Moraxella catarrhalis; conditions: 5×10^5 CFU/mL
In short: as §1

Citrobacter diversus = assay: MIC against Gram-negative bacteria: Citrobacter diversus; conditions: 5×10^5 CFU/mL
In short: as §1

Enterobacter cloacae = assay: MIC against Gram-negative bacteria: Enterobacter cloacae; conditions: 5×10^5 CFU/mL
In short: as §1

Serratia marcescens = assay: MIC against Gram-negative bacteria: Serratia marcescens; conditions: 5×10^5 CFU/mL
In short: as §1

E. coli DH5α = assay: Antibacterial activity: MIC and growth curve against E. coli DH5α in 96-well plate; conditions: minimal inhibitory concentration against E. coli DH5α; 96-well plate, 5×10^5 CFU/mL, 37° C., judged after 8 h
In short: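 Log-phase DH5α (OD600 about 0.5, 37° C, 185 rpm in LB) was pelleted, resuspended in fresh LB and seeded at 5×10^5 CFU/mL with recombinant protein at 50, 25 and 12.5 μg/mL (two-fold series), in triplicate. Plates were shaken at 175 rpm, 37° C, and OD600 was read every 30 min. MIC was the lowest concentration with no growth.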

E. coli BL21 = assay: MIC against Gram-negative bacteria: E. coli BL21; conditions: 5×10^5 CFU/mL
In short: as §1

Aeromonas hydrophila = assay: MIC against Gram-negative bacteria: Aeromonas hydrophila; conditions: 5×10^5 CFU/mL
In short: as §1

Pseudomonas aeruginosa = assay: MIC against Gram-negative bacteria: Pseudomonas aeruginosa; conditions: 5×10^5 CFU/mL
In short: as §1

[1] = Proteus mirabilis, 96-well plate, 37° C., 10 h
[2] = Proteus vulgaris, 96-well plate, 37° C., 10 h
[3] = Klebsiella pneumonia, 96-well plate, 37° C., 10 h
[4] = Moraxella catarrhalis, 96-well plate, 37° C., 10 h
[5] = Citrobacter diversus, 96-well plate, 37° C., 10 h
[6] = Enterobacter cloacae, 96-well plate, 37° C., 10 h
[7] = Serratia marcescens, 96-well plate, 37° C., 10 h
[8] = E. coli BL21, 96-well plate, 37° C., 10 h
[9] = Aeromonas hydrophila, 96-well plate, 37° C., 10 h
[10] = Pseudomonas aeruginosa, 96-well plate, 37° C., 10 h
[11] = P. mirabilis, 10 h cultivation at 37° C.
[12] = P. vulgaris, 10 h cultivation at 37° C.
[13] = K. pneumonia, 10 h cultivation at 37° C.
[14] = M. catarrhalis, 10 h cultivation at 37° C.
[15] = C. diversus, 10 h cultivation at 37° C.
[16] = E. cloacae, 10 h cultivation at 37° C.
[17] = S. marcescens, 10 h cultivation at 37° C.
[18] = E. coli BL21, 10 h cultivation at 37° C.
[19] = A. hydrophila, 10 h cultivation at 37° C.
[20] = P. aeruginosa, 10 h cultivation at 37° C.

PRT115 (SRNPCSSSPCRGGATCVLGPHGKNYTCRCPQGYQLDSSQLDCV; listed as Homo sapiens)
MIC (μg/mL) P. mirabilis (Proteus mirabilis; [1]): 12.5 µg/mL | MIC (μg/mL) P. vulgaris (Proteus vulgaris; [2]): 12.5 µg/mL | MIC (μg/mL) K. pneumonia (Klebsiella pneumonia; [3]): 50 µg/mL | MIC (μg/mL) M. catarrhalis (Moraxella catarrhalis; [4]): 50 µg/mL | MIC (μg/mL) C. diversus (Citrobacter diversus; [5]): 25 µg/mL | MIC (μg/mL) E. cloacae (Enterobacter cloacae; [6]): 25 µg/mL | MIC (μg/mL) S. marcescens (Serratia marcescens; [7]): 12.5 µg/mL | MIC (E. coli DH5α): 12.5 µg/mL | MIC (μg/mL) E. coli BL21 (E. coli BL21; [8]): 50 µg/mL | MIC (μg/mL) A. hydrophila (Aeromonas hydrophila; [9]): 12.5 µg/mL | MIC (μg/mL) P. aeruginosa (Pseudomonas aeruginosa; [10]): 12.5 µg/mL

PRT369 (DVDECLSSPCVSGVCRNLAGSYTCKCGPGSRLDPSGTFCL; listed as Homo sapiens)
MIC (Proteus mirabilis; [11]): 12.5 µg/mL | MIC (Proteus vulgaris; [12]): 50 µg/mL | MIC (Klebsiella pneumonia; [13]): 50 µg/mL | MIC (Moraxella catarrhalis; [14]): 50 µg/mL | MIC (Citrobacter diversus; [15]): 25 µg/mL | MIC (Enterobacter cloacae; [16]): 25 µg/mL | MIC (Serratia marcescens; [17]): 12.5 µg/mL | MIC (E. coli DH5α): 50 µg/mL | MIC (E. coli BL21; [18]): 25 µg/mL | MIC (Aeromonas hydrophila; [19]): 12.5 µg/mL | MIC (Pseudomonas aeruginosa; [20]): 12.5 µg/mL

PRT759 (RVDYCLLSDHGCEYSCVNMDRSFACQCPEGHVLRSDGKTCA; listed as Homo sapiens)
MIC (μg/mL) P. mirabilis (Proteus mirabilis; [11]): 12.5 µg/mL | MIC (μg/mL) P. vulgaris (Proteus vulgaris; [12]): 12.5 µg/mL | MIC (μg/mL) K. pneumonia (Klebsiella pneumonia; [13]): 12.5 µg/mL | MIC (μg/mL) M. catarrhalis (Moraxella catarrhalis; [14]): 25 µg/mL | MIC (μg/mL) C. diversus (Citrobacter diversus; [15]): 12.5 µg/mL | MIC (μg/mL) E. cloacae (Enterobacter cloacae; [16]): 12.5 µg/mL | MIC (μg/mL) S. marcescens (Serratia marcescens; [17]): 25 µg/mL | MIC (E. coli DH5α): 25 µg/mL | MIC (μg/mL) E. coli BL21 (E. coli BL21; [18]): 12.5 µg/mL | MIC (μg/mL) A. hydrophila (Aeromonas hydrophila; [19]): 12.5 µg/mL | MIC (μg/mL) P. aeruginosa (Pseudomonas aeruginosa; [20]): 25 µg/mL

PRT1276 (LTCNYGNGGCQHTCDDTEQGPRCGCHIKFVLHTDGKTCI; listed as Homo sapiens)
MIC against P. mirabilis (Proteus mirabilis; [1]): 50 µg/mL | MIC against P. vulgaris (Proteus vulgaris; [2]): 12.5 µg/mL | MIC against K. pneumonia (Klebsiella pneumonia; [3]): 12.5 µg/mL | MIC against M. catarrhalis (Moraxella catarrhalis; [4]): 12.5 µg/mL | MIC against C. diversus (Citrobacter diversus; [5]): 50 µg/mL | MIC against E. cloacae (Enterobacter cloacae; [6]): 50 µg/mL | MIC against S. marcescens (Serratia marcescens; [7]): 50 µg/mL | MIC (E. coli DH5α): 50 µg/mL | MIC against E. coli BL21 (E. coli BL21; [8]): 12.5 µg/mL | MIC against A. hydrophila (Aeromonas hydrophila; [9]): 12.5 µg/mL | MIC against P. aeruginosa (Pseudomonas aeruginosa; [10]): 50 µg/mL

PRT567 (CTCDPAGSQNEGICDSYTDFSTGLIAGQCRCKLNVEGEHCDVCKEGFYDLSSEDPFGCKS; listed as Homo sapiens)
MIC against P. mirabilis (Proteus mirabilis; 96-well plate, 37° C., 10 h): 12.5 µg/mL | MIC against P. vulgaris (Proteus vulgaris; 96-well plate, 37° C., 10 h): 12.5 µg/mL | MIC against K. pneumonia (Klebsiella pneumonia; 96-well plate, 37° C., 10 h): 25 µg/mL | MIC against M. catarrhalis (Moraxella catarrhalis; 96-well plate, 37° C., 10 h): 50 µg/mL | MIC against C. diversus (Citrobacter diversus; 96-well plate, 37° C., 10 h): 12.5 µg/mL | MIC against E. cloacae (Enterobacter cloacae; 96-well plate, 37° C., 10 h): 50 µg/mL | MIC against S. marcescens (Serratia marcescens; 96-well plate, 37° C., 10 h): 12.5 µg/mL | MIC (E. coli DH5α): 50 µg/mL | MIC against E. coli BL21 (E. coli BL21; 96-well plate, 37° C., 10 h): 25 µg/mL | MIC against A. hydrophila (Aeromonas hydrophila; 96-well plate, 37° C., 10 h): 25 µg/mL | MIC against P. aeruginosa (Pseudomonas aeruginosa; 96-well plate, 37° C., 10 h): 12.5 µg/mL

PRT622 (CNCNPMGSEPVGCRSDGTCVCKPGFGGPNC; listed as Homo sapiens)
MIC P. mirabilis (Proteus mirabilis; 96-well plate, 37° C., 10 h): 50 µg/mL | MIC P. vulgaris (Proteus vulgaris; 96-well plate, 37° C., 10 h): 12.5 µg/mL | MIC K. pneumonia (Klebsiella pneumonia; 96-well plate, 37° C., 10 h): 50 µg/mL | MIC M. catarrhalis (Moraxella catarrhalis; 96-well plate, 37° C., 10 h): 12.5 µg/mL | MIC C. diversus (Citrobacter diversus; 96-well plate, 37° C., 10 h): 50 µg/mL | MIC E. cloacae (Enterobacter cloacae; 96-well plate, 37° C., 10 h): 25 µg/mL | MIC S. marcescens (Serratia marcescens; 96-well plate, 37° C., 10 h): 12.5 µg/mL | MIC (E. coli DH5α): 25 µg/mL | MIC E. coli BL21 (E. coli BL21; 96-well plate, 37° C., 10 h): 50 µg/mL | MIC A. hydrophila (Aeromonas hydrophila; 96-well plate, 37° C., 10 h): 12.5 µg/mL | MIC P. aeruginosa (Pseudomonas aeruginosa; 96-well plate, 37° C., 10 h): 25 µg/mL
